pEC50, pIC50: −log10 of the molar value.
Key:
Assay type in all cases: cell-based
[1] = biological target: T1, K-Shaw2 (Drosophila melanogaster, UniProt P17972); assay: two-electrode voltage clamp, Xenopus oocytes, Hill fit; details: inhibition; pH 7.4; 21-23 °C; voltage not given; read-out: K 1; cited from earlier work
T1 construct: gene Shaw; full-length channel, homotetramer, expressed in Xenopus oocytes from cRNA
T1 sequence (P17972 1-498): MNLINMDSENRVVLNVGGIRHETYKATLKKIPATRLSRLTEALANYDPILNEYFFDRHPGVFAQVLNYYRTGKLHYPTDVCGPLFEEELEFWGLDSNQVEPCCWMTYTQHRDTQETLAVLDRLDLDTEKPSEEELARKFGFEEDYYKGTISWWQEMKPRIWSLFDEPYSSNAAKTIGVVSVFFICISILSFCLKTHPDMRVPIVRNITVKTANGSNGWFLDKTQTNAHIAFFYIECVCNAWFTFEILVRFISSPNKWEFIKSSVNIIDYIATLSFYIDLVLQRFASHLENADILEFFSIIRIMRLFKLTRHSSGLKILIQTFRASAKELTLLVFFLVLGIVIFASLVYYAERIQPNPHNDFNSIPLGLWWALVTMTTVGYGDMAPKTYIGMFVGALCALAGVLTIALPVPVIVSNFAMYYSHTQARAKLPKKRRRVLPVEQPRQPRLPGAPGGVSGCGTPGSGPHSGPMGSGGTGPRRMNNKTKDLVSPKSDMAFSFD
Source text: two-electrode voltage clamp, Xenopus oocytes, Hill fit on K-Shaw2

[2] = biological target: T2, ΔT1-K-Shaw2 (Drosophila melanogaster, UniProt P17972, DEL2-155); assay: as above; details: read-out: K 1
T2 construct: gene Shaw; T1 domain deleted (lacks residues 2-155), homotetramer, expressed in Xenopus oocytes
T2 sequence (P17972 with tags, fused parts or gaps DEL2-155): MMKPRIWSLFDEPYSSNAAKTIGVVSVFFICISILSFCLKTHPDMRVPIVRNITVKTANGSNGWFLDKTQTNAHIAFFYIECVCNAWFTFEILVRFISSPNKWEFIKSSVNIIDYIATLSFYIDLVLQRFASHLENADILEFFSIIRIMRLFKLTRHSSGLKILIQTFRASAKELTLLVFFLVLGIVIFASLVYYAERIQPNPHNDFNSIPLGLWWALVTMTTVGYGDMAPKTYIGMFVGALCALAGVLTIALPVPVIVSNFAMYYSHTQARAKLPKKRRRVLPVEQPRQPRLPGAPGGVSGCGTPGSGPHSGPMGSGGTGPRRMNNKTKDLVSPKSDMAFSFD
Source text: two-electrode voltage clamp, Xenopus oocytes, Hill fit on ΔT1-K-Shaw2

[3] = biological target: T1, K-Shaw2; assay: two-electrode voltage clamp, Xenopus oocytes, double Hill fit; details: read-out: K 1
Source text: two-electrode voltage clamp, Xenopus oocytes, double Hill fit on K-Shaw2 | Solid line is the best-fit double Hill equation to the K-Shaw2 data

SMILES | pIC50 [1] | pIC50 [2] | pEC50 [3]
ClC(Cl)Cl [chloroform] | 3.15 | – | –
FC(F)(F)C(Cl)Br (centres unmarked) [halothane] | 3.59 | 3.42 | –
FC(F)OC(Cl)C(F)(F)F (centres unmarked) [isoflurane] | 2.77 | – | –
CCCCO [n-butanol] | 2.00 | 1.79 | –
CC(C)c1cccc(C(C)C)c1O [propofol] | 4.22 | – | –
FCOC(C(F)(F)F)C(F)(F)F [sevoflurane] | – | – | 4.10

Source: article PMC4657974, “Positive Allosteric Modulation of Kv Channels by Sevoflurane: Insights into the Structural Basis of Inhaled Anesthetic Action” (PLoS ONE, 2015)
